Patent US9301952B2, “Diarylpyridine anti-viral compounds” (Kineta, Inc., priority 2010, dated 2016)
pIC50: −log10 of the molar value. Read-outs that look alike come from different tables or passages of the source.

How the values were obtained:
[1] = system: HCV2a; assay: HCV focus-forming assay (FFA) / HCV IF antiviral assay; type: cell-based, Hepatitis C virus
Method: FIG. 1 is a graph of an HCV focus-forming assay. Huh7 cells were pre-treated with compound KIN400 for 24 hours and infected with HCV2a at an multiplicity of infection (MOI) of 0.5 for 48 hours. HCV protein was detected by immunofluorescent staining with viral-specific serum and foci were normalized to negative control cells that were not drug treated (equal to 1).
HCV IF antiviral assay. Huh7 cells are seeded on a 96 well plate at 5×10^3 cells per well and cells are allowed to attach and grow for 24 hours. Compounds that have been diluted to 10 uM in media and contain a final concentration of 0.5% DMSO are added to each well and grown another 24 hours. The compound media solution is removed from the plate and stored in a clean tissue culture dish. Cell monolayers are washed with PBS and HCV2a virus is added at the stated MOI. Virus is incubated for 2-4 hours and then removed, the monolayers are washed with PBS and the compound solutions are replaced into each well.
The cells are grown overnight and then cells are fixed and stained for HCV proteins. All buffers and reagents are used from the Cellomics staining kits described above. Primary serum PHS#72 is diluted 1:3,000 in wash buffer and incubated at room temperature 1 hour. […] The number of infected cells is counted and representative images are saved.

[2] = system: HCV RNA; assay: Decrease of HCV RNA; type: cell-based, Hepatitis C virus
Method: KIN400 compounds are tested for in vitro antiviral activity against HCV 2A and influenza A virus (A/WSN/33). Viral protein and RNA levels are assessed following drug treatment using the assays described above.

[3] = MTS assay to determine cytotoxicity; type: cell-based, human; conditions: human; Huh7 cells, 24 hours
Method: (§1) MTS assay to determine cytotoxicity. Cultured human Huh7 cells are treated with increasing amounts of compound or equivalent amounts of DMSO diluted in media for 24 hours to see their effect on cell viability. The proportion of viable cells is calculated using a cell viability assay that measures conversion of a tetrazolium compound [[…]-5-(3-carboxymethoxyphenyl)-2-(4-sulfophenyl)-2H-tetrazolium, inner salt; MTS] to a colored formazan compound in live cells.
(§2) The conversion of MTS to formazan is detected in a 96-well microtiter plate reader, and the resulting optical densities can be plotted directly to estimate cell viability. […] Compounds were diluted to final concentrations of 0, 5, 10, 20, and 50 uM in media containing 0.5% DMSO. Negative control wells contain no compound and positive control for cytotoxicity is examined using an EMCV infection which causes 100% cytopathic effect. Each compound concentration and control is done in triplicate wells to generate error bars.

[4] = system: Huh7 cells; assay: MTS assay to determine cytotoxicity; type: cell-based, human
Method: as §1, §2

[5] = system: Murine Encephalomyocarditis virus (EMCV); assay: EMCV antiviral assay (cell viability by MTS after infection); type: cell-based; conditions: Huh7 cells, EMCV 250 pfu
[6] = system: IRF-3; assay: Activation of IRF-3; type: cell-based
[7] = system: Influenza WSN strain
[8] = system: Influenza WSN strain; assay: microbe, parasite or virus in culture; conditions: Influenza A virus, A549, read-out: Influenza nucleoprotein (NP) ELISA (IC50)

N#Cc1c(-c2ccccc2)cc(-c2ccccc2)nc1SCC(=O)N1CCOCC1 [KIN400]
pIC50 ([1]; Hepatitis C virus, Huh-7, Huh7 cells): 5.29
pIC50 ([1]; Huh7 cells): 5.29
Decrease HCV RNA [2]: Yes
Decrease HCV RNA ([2]; listed as KIN100): decrease in HCV RNA
CC50 at 24 h [3]: > 50 µM
CC50 [4]: > 50 µM
cytotoxicity (in words) [4]: low cytotoxicity
Cell viability post-infection ([5]; 5 μM): ~0.75
Cell viability post-infection ([5]; 10 μM): ~0.95
Cell viability post-infection ([5]; 20 μM): ~1.05
activation of IRF-3 [6]: activation of IRF-3
Therapeutic index (TI) (CC50/IC50) [7]: > 10
Therapeutic index (TI) (CC50/IC50) ([7]; listed as KIN100): 250
antiviral activity against influenza virus (in words) ([7]; influenza virus strain WSN): antiviral activity against influenza virus
pIC50 [8]: 6.70
